Measurements: ChEMBL document CHEMBL1201862, “PubChem BioAssay data set” (2004)
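All cell lines were grown in 96-well plates and treated with compound for 48 hours. At the GI50, growth is halved.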 Active and inactive are the calls of the source. Cut-off read from the data, not from the text of the source: active = GI50 up to about 1.1 µM and inactive = higher.

Experiments:
Assay in all cases: inhibition of tumour cell growth, NCI panel, 48 h
SF-539 = system: SF-539
MDA-N = system: MDA-N
A549 = system: A549
SK-MEL-2 = system: SK-MEL-2
786-0 = system: 786-0
HCT-116 = system: HCT-116
MOLT-4 = system: MOLT-4
SK-MEL-5 = system: SK-MEL-5
HOP-92 = system: HOP-92
T47D = system: T47D
NCI-H226 = system: NCI-H226
NCI-H23 = system: NCI-H23
CAKI-1 = system: CAKI-1
OVCAR-3 = system: OVCAR-3
SNB-19 = system: SNB-19
SK-MEL-28 = system: SK-MEL-28
HCC 2998 = system: HCC 2998
BT-549 = system: BT-549
RXF 393 = system: RXF 393
Malme-3M = system: Malme-3M

Row | Compound | GI50 (SF-539) | GI50 (MDA-N) | GI50 (A549) | GI50 (SK-MEL-2) | GI50 (786-0) | GI50 (HCT-116) | GI50 (MOLT-4) | GI50 (SK-MEL-5) | GI50 (HOP-92) | GI50 (T47D) | GI50 (NCI-H226) | GI50 (NCI-H23) | GI50 (CAKI-1) | GI50 (OVCAR-3) | GI50 (SNB-19) | GI50 (SK-MEL-28) | GI50 (HCC 2998) | GI50 (BT-549) | GI50 (RXF 393) | GI50 (Malme-3M)
1 | C=C1C(=O)O[C@H]2C(=O)[C@H](C)CCC/C(C)=C/CC[C@@]3(C)O[C@@H]3C[C@@H]12 | 2.39 µM (inactive) | 2.74 µM (inactive) | 5.82 µM (inactive) | 5.26 µM (inactive) | 1.62 µM (inactive) | 1.05 µM (active) | 1.61 µM (inactive) | 7.59 µM (inactive) | 1 µM (active) | 2.01 µM (inactive) | 17.7 µM (inactive) | 14 µM (inactive) | 1.67 µM (inactive) | 1.74 µM (inactive) | 11.4 µM (inactive) |  |  |  |  | 
2 | CN1C2=C(CC3=C1CC(C)(C)CC3=O)C(=O)CC(C)(C)C2 | > 100 µM (inactive) |  | > 100 µM (inactive) |  | > 100 µM (inactive) |  | > 100 µM (inactive) | > 100 µM (inactive) | > 100 µM (inactive) |  | > 100 µM (inactive) | > 100 µM (inactive) | > 100 µM (inactive) | > 100 µM (inactive) | > 100 µM (inactive) | > 100 µM (inactive) | > 100 µM (inactive) | > 100 µM (inactive) |  | 
3 | N#C/C(=C/n1c(=S)[nH]c2ccccc21)C(N)=O | > 100 µM (inactive) | > 100 µM (inactive) | > 100 µM (inactive) | > 100 µM (inactive) | > 100 µM (inactive) | > 100 µM (inactive) | > 100 µM (inactive) | > 100 µM (inactive) | 11 µM (inactive) | > 100 µM (inactive) | > 100 µM (inactive) | > 100 µM (inactive) | > 100 µM (inactive) | > 100 µM (inactive) | > 100 µM (inactive) | > 100 µM (inactive) | > 100 µM (inactive) |  | > 100 µM (inactive) | > 100 µM (inactive)
4 | Cc1nc2c(nc1C)C(=O)c1cc(O)ccc1C2=O | > 81.1 µM (inactive) |  | 77.6 µM (inactive) | 55.6 µM (inactive) | > 95.5 µM (inactive) | 77.6 µM (inactive) | > 66.7 µM (inactive) | 15.6 µM (inactive) | > 100 µM (inactive) |  | > 100 µM (inactive) | > 100 µM (inactive) | > 100 µM (inactive) | 29.3 µM (inactive) | 99.1 µM (inactive) | 98.4 µM (inactive) | > 67.6 µM (inactive) |  | > 100 µM (inactive) | 20.5 µM (inactive)
5 | COc1c2c3c4c(c(OC)c(=O)c5c(O)cc(OC)c(c6c(OC)cc(O)c(c1=O)c63)c54)C(C(C)O)C2C(C)O (configuration not stated) | 0.796 µM (active) | 0.767 µM (active) | 0.735 µM (active) | 1.23 µM (inactive) | 0.789 µM (active) | 0.847 µM (active) | 0.505 µM (active) | 0.24 µM (active) | 0.421 µM (active) | 1.18 µM (inactive) | 0.796 µM (active) | 0.798 µM (active) | 0.53 µM (active) | 0.871 µM (active) | 0.83 µM (active) | 0.953 µM (active) | 0.431 µM (active) |  | 0.471 µM (active) | 1.17 µM (inactive)
6 | CNc1cccc2c1C(C)C[C@]1(C)C(=O)Nc3ccccc3[C@H]21 (some centres not stated) | 42 µM (inactive) | 26.6 µM (inactive) | 20 µM (inactive) | 24.1 µM (inactive) | 17.9 µM (inactive) | 18.7 µM (inactive) | 32.8 µM (inactive) | 43.8 µM (inactive) |  | 41.1 µM (inactive) | 24.9 µM (inactive) | 60.1 µM (inactive) | 26.5 µM (inactive) | 17.5 µM (inactive) | 23 µM (inactive) | 30.3 µM (inactive) | 51.3 µM (inactive) |  | 23.2 µM (inactive) | 19.5 µM (inactive)
